Experimental data from PubChem BioAssay (NCI).
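These data come from cells grown in 96-well plates and exposed to compound for 48 hours at five concentrations. TGI: total growth inhibition.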

Columns and labels:
Test in all cases: growth of human tumour cells (NCI), 48 h
M14 melanoma = test system: M14 melanoma
RPMI-8226 leukemia = test system: RPMI-8226 leukemia
HT29 colon = test system: HT29 colon
A549 NSCLC = test system: A549 NSCLC
TK-10 renal = test system: TK-10 renal
OVCAR-5 ovarian = test system: OVCAR-5 ovarian
786-0 renal = test system: 786-0 renal
HOP-62 NSCLC = test system: HOP-62 NSCLC
NCI-H23 lung = test system: NCI-H23 lung
MDA-MB-231 breast = test system: MDA-MB-231 breast
MOLT-4 leukemia = test system: MOLT-4 leukemia
HCT-15 colon = test system: HCT-15 colon
CCRF-CEM leukemia = test system: CCRF-CEM leukemia
SW-620 colon = test system: SW-620 colon
OVCAR-3 ovarian = test system: OVCAR-3 ovarian
UACC-257 melanoma = test system: UACC-257 melanoma
A498 renal = test system: A498 renal
MDA-MB-435 = test system: MDA-MB-435
DU-145 prostate = test system: DU-145 prostate
NCI-H226 lung = test system: NCI-H226 lung
SF-539 CNS = test system: SF-539 CNS
SK-MEL-28 melanoma = test system: SK-MEL-28 melanoma
SF-268 CNS = test system: SF-268 CNS
EKVX NSCLC = test system: EKVX NSCLC
OVCAR-4 ovarian = test system: OVCAR-4 ovarian
BT-549 breast = test system: BT-549 breast
T-47D breast = test system: T-47D breast
U251 CNS = test system: U251 CNS
SK-MEL-5 melanoma = test system: SK-MEL-5 melanoma
HS 578T breast = test system: HS 578T breast
IGROV1 ovarian = test system: IGROV1 ovarian
SNB-19 CNS = test system: SNB-19 CNS
KM12 colon = test system: KM12 colon
MCF7 breast = test system: MCF7 breast
NCI/ADR-RES ovarian = test system: NCI/ADR-RES ovarian
HL-60(TB) leukemia = test system: HL-60(TB) leukemia
UO-31 renal = test system: UO-31 renal
HOP-92 NSCLC = test system: HOP-92 NSCLC
MDA-N = test system: MDA-N
NCI-H460 lung = test system: NCI-H460 lung
MALME-3M melanoma = test system: MALME-3M melanoma
CAKI-1 renal = test system: CAKI-1 renal
HCT-116 colon = test system: HCT-116 colon
COLO 205 colon = test system: COLO 205 colon
OVCAR-8 ovarian = test system: OVCAR-8 ovarian
PC-3 prostate = test system: PC-3 prostate
SR leukemia = test system: SR leukemia
LOX IMVI melanoma = test system: LOX IMVI melanoma
SN12C renal = test system: SN12C renal
ACHN renal = test system: ACHN renal
SNB-75 CNS = test system: SNB-75 CNS
SK-OV-3 ovarian = test system: SK-OV-3 ovarian
K-562 leukemia = test system: K-562 leukemia
SF-295 CNS = test system: SF-295 CNS
NCI-H522 lung = test system: NCI-H522 lung
RXF 393 renal = test system: RXF 393 renal
UACC-62 melanoma = test system: UACC-62 melanoma
SK-MEL-2 melanoma = test system: SK-MEL-2 melanoma

## COC1CC(C)(NC(C)=O)C2OC(c3ccccc3)OCC2O1 (stereo not drawn)
M14 melanoma
  TGI: > 100 µM
RPMI-8226 leukemia
  TGI: > 100 µM
HT29 colon
  TGI: > 100 µM
A549 NSCLC
  TGI: > 100 µM
TK-10 renal
  TGI: > 100 µM
OVCAR-5 ovarian
  TGI: > 100 µM
786-0 renal
  TGI: > 100 µM
HOP-62 NSCLC
  TGI: > 100 µM
NCI-H23 lung
  TGI: > 100 µM
MDA-MB-231 breast
  TGI: > 100 µM
MOLT-4 leukemia
  TGI: > 100 µM
HCT-15 colon
  TGI: > 100 µM
CCRF-CEM leukemia
  TGI: > 100 µM
SW-620 colon
  TGI: > 100 µM
OVCAR-3 ovarian
  TGI: > 100 µM
UACC-257 melanoma
  TGI: > 100 µM
A498 renal
  TGI: > 100 µM
MDA-MB-435
  TGI: > 100 µM
DU-145 prostate
  TGI: > 100 µM
NCI-H226 lung
  TGI: > 100 µM
SF-539 CNS
  TGI: > 100 µM
SK-MEL-28 melanoma
  TGI: > 100 µM
SF-268 CNS
  TGI: > 100 µM
EKVX NSCLC
  TGI: > 100 µM
OVCAR-4 ovarian
  TGI: > 100 µM
BT-549 breast
  TGI: > 100 µM
T-47D breast
  TGI: > 100 µM
U251 CNS
  TGI: > 100 µM
SK-MEL-5 melanoma
  TGI: > 100 µM
HS 578T breast
  TGI: > 100 µM
IGROV1 ovarian
  TGI: > 100 µM
SNB-19 CNS
  TGI: > 100 µM
KM12 colon
  TGI: > 100 µM
MCF7 breast
  TGI: > 100 µM
NCI/ADR-RES ovarian
  TGI: > 100 µM
HL-60(TB) leukemia
  TGI: > 100 µM
UO-31 renal
  TGI: > 100 µM
HOP-92 NSCLC
  TGI: > 100 µM
MDA-N
  TGI: > 100 µM
NCI-H460 lung
  TGI: > 100 µM
MALME-3M melanoma
  TGI: > 100 µM
CAKI-1 renal
  TGI: > 100 µM
HCT-116 colon
  TGI: > 100 µM
COLO 205 colon
  TGI: > 100 µM
OVCAR-8 ovarian
  TGI: > 100 µM
PC-3 prostate
  TGI: > 100 µM
SR leukemia
  TGI: > 100 µM
LOX IMVI melanoma
  TGI: > 100 µM
SN12C renal
  TGI: > 100 µM
ACHN renal
  TGI: > 100 µM
SNB-75 CNS
  TGI: > 100 µM
SK-OV-3 ovarian
  TGI: > 100 µM
K-562 leukemia
  TGI: > 100 µM
SF-295 CNS
  TGI: > 100 µM
NCI-H522 lung
  TGI: > 100 µM
RXF 393 renal
  TGI: > 100 µM
UACC-62 melanoma
  TGI: > 100 µM

## Cn1c(-c2ccccc2)c2cc3nc4ccccc4nc3cc2c1-c1ccccc1
M14 melanoma
  TGI: 31.3 µM
RPMI-8226 leukemia
  TGI: 30.1 µM
HT29 colon
  TGI: > 100 µM
A549 NSCLC
  TGI: > 100 µM
TK-10 renal
  TGI: > 100 µM
OVCAR-5 ovarian
  TGI: > 100 µM
HOP-62 NSCLC
  TGI: 35.9 µM
NCI-H23 lung
  TGI: 44.1 µM
MDA-MB-231 breast
  TGI: > 100 µM
MOLT-4 leukemia
  TGI: 64.6 µM
HCT-15 colon
  TGI: 53.4 µM
SW-620 colon
  TGI: 92.5 µM
OVCAR-3 ovarian
  TGI: > 100 µM
UACC-257 melanoma
  TGI: > 100 µM
A498 renal
  TGI: 59.5 µM
MDA-MB-435
  TGI: 77.4 µM
DU-145 prostate
  TGI: > 100 µM
SF-539 CNS
  TGI: 41.2 µM
SK-MEL-28 melanoma
  TGI: > 100 µM
SF-268 CNS
  TGI: 86.9 µM
EKVX NSCLC
  TGI: > 100 µM
OVCAR-4 ovarian
  TGI: > 100 µM
BT-549 breast
  TGI: 80.8 µM
T-47D breast
  TGI: > 100 µM
U251 CNS
  TGI: > 100 µM
SK-MEL-5 melanoma
  TGI: 9.71 µM
HS 578T breast
  TGI: 45.9 µM
IGROV1 ovarian
  TGI: > 100 µM
SNB-19 CNS
  TGI: > 100 µM
KM12 colon
  TGI: 72.1 µM
MCF7 breast
  TGI: 47.2 µM
NCI/ADR-RES ovarian
  TGI: > 100 µM
HL-60(TB) leukemia
  TGI: 52.6 µM
UO-31 renal
  TGI: > 100 µM
HOP-92 NSCLC
  TGI: 94.2 µM
MDA-N
  TGI: 38.9 µM
NCI-H460 lung
  TGI: 25.2 µM
MALME-3M melanoma
  TGI: 78.7 µM
CAKI-1 renal
  TGI: > 100 µM
HCT-116 colon
  TGI: > 100 µM
COLO 205 colon
  TGI: 9.09 µM
OVCAR-8 ovarian
  TGI: > 100 µM
PC-3 prostate
  TGI: 70.4 µM
SR leukemia
  TGI: 24.2 µM
LOX IMVI melanoma
  TGI: 65 µM
SN12C renal
  TGI: 51.3 µM
ACHN renal
  TGI: 83.3 µM
SNB-75 CNS
  TGI: > 100 µM
SK-OV-3 ovarian
  TGI: 64.9 µM
K-562 leukemia
  TGI: 82.6 µM
SF-295 CNS
  TGI: 89.8 µM
NCI-H522 lung
  TGI: 40.3 µM
RXF 393 renal
  TGI: 54.4 µM
SK-MEL-2 melanoma
  TGI: 60.3 µM
UACC-62 melanoma
  TGI: 30.2 µM

## Cc1[nH]c(-c2ccccc2)c(O)c1C(=O)OC12CC3CC(CC(C3)C1)C2
M14 melanoma
  TGI: 24.9 µM
RPMI-8226 leukemia
  TGI: > 100 µM
HT29 colon
  TGI: 17.2 µM
A549 NSCLC
  TGI: 25.7 µM
OVCAR-5 ovarian
  TGI: 26.8 µM
786-0 renal
  TGI: 27 µM
HOP-62 NSCLC
  TGI: 28.1 µM
NCI-H23 lung
  TGI: 31.6 µM
MDA-MB-231 breast
  TGI: 33.1 µM
MOLT-4 leukemia
  TGI: 32.3 µM
HCT-15 colon
  TGI: 27.4 µM
CCRF-CEM leukemia
  TGI: > 100 µM
SW-620 colon
  TGI: 29.7 µM
OVCAR-3 ovarian
  TGI: 27.8 µM
UACC-257 melanoma
  TGI: 31.2 µM
A498 renal
  TGI: 35 µM
MDA-MB-435
  TGI: 28.6 µM
DU-145 prostate
  TGI: 29.3 µM
NCI-H226 lung
  TGI: 27.1 µM
SF-539 CNS
  TGI: 23.7 µM
SK-MEL-28 melanoma
  TGI: 27.8 µM
SF-268 CNS
  TGI: 27.2 µM
EKVX NSCLC
  TGI: 27 µM
OVCAR-4 ovarian
  TGI: 34.4 µM
BT-549 breast
  TGI: 31.8 µM
T-47D breast
  TGI: 29.5 µM
U251 CNS
  TGI: 28.2 µM
SK-MEL-5 melanoma
  TGI: 28 µM
HS 578T breast
  TGI: 25.9 µM
IGROV1 ovarian
  TGI: 27.4 µM
SNB-19 CNS
  TGI: 28.3 µM
KM12 colon
  TGI: 19.3 µM
MCF7 breast
  TGI: 28 µM
NCI/ADR-RES ovarian
  TGI: 27.3 µM
HL-60(TB) leukemia
  TGI: > 100 µM
UO-31 renal
  TGI: 32.6 µM
HOP-92 NSCLC
  TGI: 34.8 µM
MDA-N
  TGI: 31.2 µM
NCI-H460 lung
  TGI: 21.3 µM
MALME-3M melanoma
  TGI: 28 µM
CAKI-1 renal
  TGI: 35.4 µM
HCT-116 colon
  TGI: 30.4 µM
COLO 205 colon
  TGI: 27 µM
OVCAR-8 ovarian
  TGI: 25.8 µM
PC-3 prostate
  TGI: 28.9 µM
SR leukemia
  TGI: 44 µM
SN12C renal
  TGI: 30.1 µM
ACHN renal
  TGI: 29.7 µM
SNB-75 CNS
  TGI: 23.1 µM
SK-OV-3 ovarian
  TGI: 28.1 µM
K-562 leukemia
  TGI: > 100 µM
SF-295 CNS
  TGI: 14.1 µM
NCI-H522 lung
  TGI: 22.9 µM
RXF 393 renal
  TGI: 20.1 µM
SK-MEL-2 melanoma
  TGI: 31.3 µM
UACC-62 melanoma
  TGI: 32.8 µM
